What is called melting point is the temperature, or range, at which the solid turns liquid.

This note sets out measurements from a melting point compilation (Tetko et al.; mined from patent text by program, amines drawn as free bases though some values may be those of a salt).

Each structure is given as a SMILES string.

`ON=C(c1ccc(F)cc1)c1ccc(O)c(Cl)c1Cl` displayed a melting point of 150 to 156 °C.

Turning to `COC(=O)c1nc(Cl)nc(N)c1OC`, the melting point was 158 °C. `CCN(CC)c1ccc(/C=C/c2cc(/C=C/c3ccc4cc[nH]c4c3)[nH]n2)c(OCc2ccccc2)c1` showed a melting point of 78.1 to 80 °C. As to `Nc1c2c(nc3ccccc13)CCc1cn(N)nc1-2`, the melting point is > 250 °C. With `CC(C)C[C@@H](C(=O)O)n1sc2ccc(F)cc2c1=O` the figure was 161 to 162 °C.

Turning to `O=C(NCCCCCCc1ccc(-c2ccc(=O)[nH]n2)cc1)c1cccnc1`, the melting point was in the range of 178 to 179 °C.

Compound `O=C1NC(=O)C(c2ccccc2)=C1Nc1ccc(OC(F)(F)F)cc1` showed a melting point of 206 °C. With `Cn1cc(C(=O)O)c(=O)c2c3cc(F)c(N4CCN(c5ccc(F)cc5)CC4)cc3ncc21` the figure was 346 °C. With `CN(C)/N=C(/C(=O)O)c1ccc(OCCOc2ccc3ccccc3c2)cc1` the figure was 135 °C; with `CCOC(O)C(F)(F)C(F)(F)C(F)(F)C(F)(F)C(O)OCC` (stereo not drawn), 110 to 111 °C; with `CCN(CC)CCOc1ccc2cc3ccc(OCCN(CC)CC)c(CN4C(=O)c5ccccc5C4=O)c3nc2c1CN1C(=O)c2ccccc2C1=O`, 242 to 244 °C. Compound `O=c1[nH]c(=O)n(C2CC(O)C(COC3(c4ccccc4)c4ccccc4Oc4ccccc43)O2)cc1I` (stereo not drawn) came in with a melting point of 200 to 202 °C. With `CN1CCC(O)(c2cc(F)c(Br)cc2F)CC1` the figure was 133 to 135 °C; with `C#CC(C)(C)N=C(NC#N)SC`, 128 to 130 °C.

For the compound `CCOC(=O)c1cc2c(=O)n(CC)c3ccc(Cl)cc3n2c1`, the melting point lay within 230 to 232 °C. With `Cc1nn(-c2ccccn2)c2nc3ccccc3c(C#N)c12` the figure was 210 to 211 °C. In the case of `COc1ccccc1N1CCN(CCN2C(=O)c3ccccc3C2=O)CC1`, the melting point was 76 to 81 °C. The compound `Cc1c(CCN(C)C)c2cc(S(=O)(=O)c3ccccc3)ccc2n1C` registered a melting point of 170 to 172 °C. The same measure for `CCS(=O)(=O)Nc1cc(-c2ncnc(C(F)F)c2Cl)c(F)cc1Cl`: 138 to 139 °C; for `CC(C)CN(C(=O)N(CCCl)N=O)C1(O)C(OC2CCCCC2)OC(CO)C1O` (stereo not drawn): 70 to 72 °C; for `COc1cc(-c2ncc(C(F)(F)F)cc2Cl)ccc1C#N`: 135 to 137 °C. The compound `CC1=CCCC2C1(C)CCC(C)C2(C)CC1=CC(=O)C=CC1=O` (stereo not drawn) gave a melting point of 62 to 64 °C.

Compound `Clc1ccc(OCc2ccccc2)c(Br)c1` displayed a melting point of 49 to 50.5 °C.

In turn, `CS(=O)(=O)c1ccc(-n2nc(-c3ccc(O)cc3O)c3ccc(O)cc32)cc1` yielded a melting point of 94 to 96 °C. The same measure for `CCOC(=O)Cc1cnc(NS(C)(=O)=O)s1`: 153 to 155 °C; for `O=C(O)Cc1cccc2c(=O)cc(-c3ccc(F)c(F)c3)oc12`: 145 to 147 °C; for `C#CC(OC)Oc1cc(Cc2cnc(N)nc2N)cc(OC)c1OC` (stereo not drawn): 153 to 155 °C. The same measure for `CSC(=O)c1c(C(F)F)nc(C(F)(F)F)c(C(=O)SC)c1N`: 160 to 161 °C; for `O=C(OCC1CC1)c1ncn2c1C1C=CCN1C(=O)c1c(Cl)cccc1-2` (stereo not drawn): 189 to 190 °C; for `Cc1cc([N+](=O)[O-])c(CC2NC(=O)NC2=O)cc1Cl` (stereo not drawn): 211 to 214 °C.

On to `CC(=O)SCC(Cc1ccccc1)C(=O)Nc1cccc(C(=O)OCCOc2ccccc2)c1` (stereo not drawn), for which the melting point fell in the range of 90 to 92 °C. `CCN(CC)c1ccc2nc3c4ccccc4c(=Nc4cc(C)on4)cc-3oc2c1` showed a melting point of 195 to 196 °C.

`O=C(c1ccccc1)c1ccc(OCCCCOc2ccc(C(=O)c3ccccc3)cc2)cc1` had a melting point of 163 to 164 °C. The same measure for `CN1C(=O)CC[C@]2(C)c3ccc(C=Cc4cnc5ccccc5c4)cc3CC[C@@H]12`: 181 to 183 °C. With `C=CCc1ccc(OCCC(C)C)c2c(=O)cc(C(=O)O)oc12`, the melting point fell in the range of 79 to 80 °C. In turn, `O=C(Nc1nnc(Cc2ccc(Cl)cc2)s1)c1ccc2cccnc2c1O` displayed a melting point of 276 to 278 °C. For `CN1CCN(Cc2cc(-c3ccc4c(c3)CCO4)nn(CC3CC3)c2=O)CC1`, the melting point lay in the range of 128 to 130 °C. In turn, `O=C(NCCCC(c1cc(F)ccc1F)S(=O)(=O)c1ccc(Cl)cc1)OCCI` (stereo not drawn) showed a melting point of 100 to 101 °C.

`O=C1NC(=O)C(Cc2ccc(S(=O)(=O)CCCc3ccccc3)cc2)S1` (stereo not drawn) had a melting point of 126 to 127 °C.

Compound `CCCN(CCCCNc1ncc(Cc2ccnc(O)c2)c(=O)[nH]1)c1ccccn1` had a melting point of 138 to 140 °C. The same measure for `Cc1cc([N+](=O)[O-])cc(C)c1NS(=O)(=O)CCSCCN`: 159 °C; for `CCCc1c(OCC(O)COc2ccc3c(c2CCC)OC(C(=O)O)CC3=O)ccc(C(C)=O)c1O` (stereo not drawn): 68 to 72 °C; for `O=C1c2ccccc2CNc2nc3ccc(Br)cc3c(Cl)c21`: 260 to 264 °C. Turning to `Nc1ccc(OCC(COc2ccc(N)cc2)(COc2ccc(N)cc2)COc2ccc(N)cc2)cc1`, the melting point fell in the range of 210 to 211 °C. `CCn1cc(-c2cccc(C(F)(F)F)c2)c(=O)c(-c2cccc(C(F)(F)F)c2)c1` returned a melting point of 185 °C. For `COCC(C)N1Cc2c(NC(=O)c3ccc(F)c(C(F)(F)F)c3)cccc2C1=O` (stereo not drawn), the melting point is 151 to 152 °C. With `Cc1cc(-c2cccs2)nc(Nc2ccc(C(C)C)cc2Br)n1` the figure was 98 to 101 °C. In the case of `COc1ccccc1N1C=C(C(Cl)(Cl)Cl)CN(C(Cl)(Cl)Cl)N1`, the melting point lay in the range of 93 to 95 °C.

`O=C1c2ccccc2CC(=NO)c2ccccc21` displayed a melting point of 186 °C. With `CCSC(c1ccc(Cl)cc1Cl)C(C(O)C(C)(C)CF)n1cncn1` (stereo not drawn) the figure was 182 °C; with `CNC(=O)Nc1cccc2c1C(=O)c1c-2n[nH]c1-c1ccc(OC)cc1`, > 300 °C.

With `COC(=O)c1c(Br)c(Cl)cc2nn(C)cc12`, the melting point is 141 to 142 °C.

As to `Cc1cccc(NC(c2ccc(F)c(F)c2)c2ccc3cccnc3c2O)n1` (stereo not drawn), the melting point was 162 to 165 °C. Compound `CC1(C)[C@@H]2CC3[C@H](C(=O)NCC(N)=O)[C@@]3(C)C[C@@H]21` (stereo partly drawn) had a melting point of 169 to 170 °C. `Cc1nnc(-c2ccc3occ(-c4cc(C(F)(F)F)ccc4Cl)c3c2)o1` returned a melting point of 188 to 189 °C. Consider `Cn1cnc2nc(-c3cccc4ccccc34)nn2c1=S`, for which the melting point lay in the range of 278 to 279 °C. With `COC(=O)c1ccc(-c2coc3ccc(-c4nnc(C)o4)cc23)cc1` the figure was 208 to 209 °C.

Consider `CCn1c(=S)sc2c(=N)n(NC(=O)c3ccco3)cnc21`, for which the melting point was determined as 226 °C. The compound `O=C(O)CCNC(=O)C1CN(c2ccc(-c3noc(=O)[nH]3)cc2)C(=O)O1` (stereo not drawn) came in with a melting point of 221 to 223 °C. The same measure for `O=c1c(N2CCCCC2)nc2ccccc2n1-c1ccc(Cl)cc1`: 184 to 185 °C; for `Oc1c(-c2nnn[nH]2)cnc2c(Br)cccc12`: > 260 °C; for `Cc1cc(-c2nncc3c(C(C)(C)C)c(OCc4ccncc4)nn23)no1`: 119 to 121 °C. The same measure for `O=P1(c2ccccc2)c2ccccc2CN1c1ccccc1` (stereo not drawn): 227 to 229 °C. The same measure for `CC1Cc2cc3c(cc2C(c2ccc([N+](=O)[O-])cc2)=NN1C(=S)NC(=O)NC1CC1)OCO3` (stereo not drawn): 281 to 283 °C; for `O=C(Cc1ccc(O)c(Cl)c1)Oc1cc(Cl)c(Cl)cc1Cl`: 77 °C.

Take `CCOC(=O)C(C)(C(C)=O)c1ccc(N)c(NC)c1C#N` (stereo not drawn): the melting point lay within 118 to 123 °C. With `O=C(O)COc1cccc2c1CCc1sc(NC(c3ccccc3)c3ccccc3)nc1-2` the figure was 250 to 252 °C; with `CN1CCc2cc(CO)sc2C(c2ccccc2)C1` (stereo not drawn), 112 °C; with `Cc1ccc(C)c(S(=O)(=O)n2ccc3c4c(N)nc(N)nc4ccc32)c1`, 272 °C. With `O=C(NS(=O)(=O)Cl)Oc1c(-c2ccccc2)cccc1-c1ccccc1` the figure was 159 to 162 °C. With `CC(C)c1nc2c3c(c(C(=O)N(C)C)cc2n1C)CCC(c1ccccc1)O3` (stereo not drawn) the figure was 179 to 180 °C; with `CN(C)CCCN1c2ccccc2C(c2ccccc2Cl)=Nc2cccnc21`, 104 to 106 °C. `CC(Cn1ncnn1)n1nnc2cc3c(cc2c1=O)OC1COCCN1C3=O` (stereo not drawn) displayed a melting point of 188 to 190 °C.

As for `O=[N+]([O-])c1cc(Oc2ccccc2)ccc1OCc1ccccc1`, the melting point was in the range of 84 to 87 °C. The same measure for `O=S(=O)(CCl)c1cccc2ccccc12`: 103 to 105 °C; for `Cc1cccc2sc(S)nc12`: 161 to 173 °C. The same measure for `Fc1cccc(CSc2nnc(-c3ccnc(Nc4ccccn4)c3)o2)c1`: 141 to 142 °C; for `COc1ccc(CC(=O)O)cc1OCCCc1cn(-c2ccc(C(F)(F)F)cn2)nc1C1CCCCC1`: 117 to 118 °C. As for `Cc1cc(C)nc(-n2ccnc2S(=O)Cc2ccccc2NC=O)c1` (stereo not drawn), the melting point is 160 to 162 °C. Consider `CC(C)(O)C#Cc1cccc(N)c1`, for which the melting point fell in the range of 118 to 119 °C. With `C[C@](O)(COc1ccc(Cl)c(F)c1)C(=O)Nc1ccc(C#N)c(C(F)(F)F)c1` the figure was 132 to 134 °C. `Cc1c(C)c2c(c(C)c1NC(=O)OC(C)(C)C)C(=O)C(C)(C)O2` gave a melting point of 105 to 106 °C. With `O=C1OCCC1C(=O)c1ccc(F)cc1[N+](=O)[O-]` (stereo not drawn) the figure was 87 to 89 °C.

In the case of `CC(N)=CC(=O)c1cccnc1`, the melting point was determined as 82 °C. In turn, `COC(=O)c1ccc(Cc2cn(C(C)C)c3ccc(C=CCC(=O)N(C)C)cc23)c(OC)c1` came in with a melting point of 118 to 120 °C. In turn, `CCCc1nnc(/C=C/c2cc(OCc3ccc(OCc4nc(-c5ccco5)oc4C)c(OC)c3)nn2-c2ccccc2)o1` came in with a melting point of 107 to 108 °C. As to `O=C(CC1CN2C(=O)CC2O1)OC(c1ccccc1)c1ccccc1` (stereo not drawn), the melting point was 64.1 to 64.9 °C. The same measure for `CN1CCC(Oc2ccc(N)cc2)(c2ccccc2)CC1`: 174 to 175 °C.
